# In patent US20260133203A1, “DETECTION OF FUMARATE-DERIVED MODIFICATION IN A TEST SAMPLE” (UNIVERSITY OF SOUTH CAROLINA, priority 2017, published 2026):
# Where a name gives a salt, the structure may show the parent alone.
# System: primary rat neurons
# Test: LC-MS/MS identification of succinated proteins in primary rat neurons
# Type: cell-based
# Conditions: DMF-treated primary rat neurons, modified by DMF or MMF
# Protocol: Primary neurons from newborn rat brain cortices were isolated and cultured using an adaptation of methods described previously. Briefly, postnatal day 1 rats were sacrificed by decapitation, the brains were aseptically dissected, and cortices were separated from the rest of the brain in ice-cold Hibernate®-A medium (Life Technologies) containing 2% (v/v) B-27 supplement (Life Technologies) and 0.5 mM glutamine (InvitrogenTM). The tissue was minced in fragments of about 1 mm3 with a scalpel and subjected to digestion with 2 mg/ml papain (Worthington) in the supplemented Hibernate®-A medium for 20 minutes at 30° C. in a shaker incubator set at 100 rpm. […] After a centrifugation at 500 g for 5 min at room temperature, cells were resuspended in NeurobasalTM-A medium containing 0.5 mM glutamine, 2% B-27 supplement, and 5 ng/ml bFGF (InvitrogenTM); counted and plated on 24-well plates pretreated with 0.01% poly-L-lysine (Sigma-AldrichTM) at a density of 200,000 cells/well. […] The protein content in the different samples was determined by the Lowry assay. […] After gel extraction, the peptides were re-suspended in 1% acetic acid and analyzed on a DionexTM […] system (Thermo ScientificTM, Rockford, IL) coupled to an Orbitrap Velos ProTM mass spectrometer (Thermo ScientificTM, Rockford, IL). […]
smiles,measurement,value
"COC(=O)/C=C/C(=O)OC [DMF, dimethyl fumarate]",number of succinated proteins confirmed,4
